The assay relates to Wnt activity (Sp5-Luc reporter, SW480 colon carcinoma cells). In words: Screening assay for Wnt activity: Sp5-Luc reporter gene assay in SW480 cells. The class given is cell-based. To be noted: Homo sapiens; for inhibition at 10 µM: 10 μM compound, read-out: percent inhibition at 10 μM (given for EC50 of >10 μM); for pEC50: overnight incubation, 10-point dose-response from 10 μM. The source says:
The screening assay for Wnt activity is described as follows. Reporter cell lines can be generated by stably transducing cancer cell lines (e.g., colon cancer) or primary cells (e.g., IEC-6 intestinal cells) with a lentiviral construct that includes a Wnt-responsive promoter driving expression of the firefly luciferase gene.
SW480 colon carcinoma cells were transduced with a lentiviral vector expressing luciferase with a human Sp5 promoter consisting of a sequence of eight TCF/LEF binding sites. SW480 cells stably expressing the Sp5-Luc reporter gene and a hygromycin resistance gene were selected by treatment with 150 μg/mL of hygromycin for 7 days. These stably transduced SW480 cells were expanded in cell culture and used for all further screening activities. Each compound was dissolved in DMSO as a 10 mM stock and used to prepare compound source plates. Serial dilution (1:3, 10-point dose-response curves starting from 10 μM) and compound transfer was performed using the ECHO 550 (Labcyte, Sunnyvale, Calif.) into 384-well white solid bottom assay plates (Greiner Bio-One) with appropriate DMSO backfill for a final DMSO concentration of 0.1%. For Sp5-Luc reporter gene assays, the cells were plated at 4,000 cells/well in 384-well plates with medium containing 1% fetal bovine serum and incubated overnight at 37° C. and 5% CO2. Following incubation, 20 μl of BrightGlo luminescence reagent (Promega) was added to each well of the 384-well assay plates. The plates were placed on an orbital shaker for 2 min and then luminescence was quantified using the Envision (Perkin Elmer) plate reader. Readings were normalized to DMSO only treated cells, and normalized activities were utilized for EC50 calculations using the dose-response log (inhibitor) vs. response -variable slope (four parameters) nonlinear regression feature available in GraphPad Prism 5.0 (or Dotmatics). For EC50 of >10 μM, the percent inhibition at 10 μM is provided.
(In general: Reporter assays use an easily measured gene product as a stand-in for the process of interest.)

This is an account of results in patent US10329309B2, “3-(3H-imidazo[4,5-B]pyridin-2-yl)-1H-pyrazolo[4,3-B]pyridines and therapeutic uses thereof” (Samumed, LLC, priority 2015, dated 2019).

pEC50: −log10 of the molar value.

Consider `O=C(Nc1cncc(-c2ccc3[nH]nc(-c4nc5c(-c6cccc(F)c6)ccnc5[nH]4)c3n2)c1)C1CC1` [Compound 20, N-(5-(3-(7-(3-Fluorophenyl)-3H-imidazo[4,5-b]pyridin-2-yl)-1H-pyrazolo [4,3-b]pyridin-5-yl)pyridin-3-yl)cyclopropanecarboxamide], for which the inhibition (as a rule, the relative decrease from the control value, in per cent) at 10 µM came to 51.2% and the pEC50 – broadly, −log10 of the EC50, conventionally taken in molar units – was less than 5.00.

Consider `O=C(Nc1cncc(-c2ccc3[nH]nc(-c4nc5c(-c6ccccc6F)ccnc5[nH]4)c3n2)c1)C1CCCC1` [Compound 78, N-(5-(3-(7-(2-fluorophenyl)-3H-imidazo[4,5-b]pyridin-2-yl)-1H-pyrazolo [4,3-b]pyridin-5-yl)pyridin-3-yl)cyclopentanecarboxamide], for which the inhibition at 10 µM turned out to be 39.4% and the pEC50 was less than 5.00.

As for `c1cc(-c2ccc3[nH]nc(-c4nc5c(-c6ccncc6)ccnc5[nH]4)c3n2)ccn1` [Compound 130, 5-(pyridin-4-yl)-3-(7-(pyridin-4-yl)-3H-imidazo[4,5-b]pyridin-2-yl)-1H-pyrazolo [4,3-b]pyridine], the inhibition at 10 µM turned out to be 12.1% and the pEC50 is less than 5.00.

With `O=C(Nc1cncc(-c2ccc3[nH]nc(-c4nc5c(-c6ccccn6)ccnc5[nH]4)c3n2)c1)c1ccccc1` [Compound 151, N-(5-(3-(7-(Pyridin-2-yl)-3H-imidazo[4,5-b]pyridin-2-yl)-1H-pyrazolo[4,3-b]pyridin-5-yl)pyridin-3-yl)benzamide], the inhibition at 10 µM was 6.4% and the pEC50 was less than 5.00.

Consider `CN1CCN(c2ccnc3[nH]c(-c4n[nH]c5ccc(-c6cncc(NC(=O)C7CCCC7)c6)nc45)nc23)CC1` [Compound 246, N-(5-(3-(7-(4-Methylpiperazin-1-yl)-3H-imidazo[4,5-b]pyridin-2-yl)-1H-pyrazolo[4,3-b]pyridin-5-yl)pyridin-3-yl)cyclopentanecarboxamide], for which the inhibition at 10 µM was 4.2% and the pEC50 was less than 5.00.

With `CN1CCN(c2ccnc3[nH]c(-c4n[nH]c5ccc(-c6cncnc6)nc45)nc23)CC1` [Compound 251, 3-(7-(4-Methylpiperazin-1-yl)-3H-imidazo[4,5-b]pyridin-2-yl)-5-(pyrimidin-5-yl)-1H-pyrazolo[4,3-b]pyridine], the inhibition at 10 µM is 16.5% and the pEC50 is less than 5.00.

Consider `O=C(Cc1ccccc1)Nc1cncc(-c2ccc3[nH]nc(-c4nc5cccnc5[nH]4)c3n2)c1` [Compound 262, N-(5-(3-(3H-imidazo[4,5-b]pyridin-2-yl)-1H-pyrazolo[4,3-b]pyridin-5-yl)pyridin-3-yl)-2-phenylacetamide], for which the inhibition at 10 µM came to 7.6% and the pEC50 is less than 5.00.

For `CC(C)(C)CC(=O)Nc1cncc(-c2ccc3[nH]nc(-c4nc5cccnc5[nH]4)c3n2)c1` [Compound 268, N-(5-(3-(3H-Imidazo[4,5-b]pyridin-2-yl)-1H-pyrazolo[4,3-b]pyridin-5-yl)pyridin-3-yl)-3,3-dimethylbutanamide], the inhibition at 10 µM is 1.9% and the pEC50 was less than 5.00.

For the compound `O=C(Nc1cncc(-c2ccc3[nH]nc(-c4nc5cccnc5[nH]4)c3n2)c1)C1CCCCC1` [Compound 275, N-(5-(3-(3H-Imidazo[4,5-b]pyridin-2-yl)-1H-pyrazolo[4,3-b]pyridin-5-yl)pyridin-3-yl)cyclohexanecarboxamide], the inhibition at 10 µM turned out to be 3.1% and the pEC50 is less than 5.00.

Consider `Cc1ccc(-c2ccnc3[nH]c(-c4n[nH]c5ccc(-c6cncc(NC(=O)C7CCCC7)c6)nc45)nc23)s1` [Compound 414, N-(5-(3-(7-(5-Methylthiophen-2-yl)-3H-imidazo[4,5-b]pyridin-2-yl)-1H-pyrazolo[4,3-b]pyridin-5-yl)pyridin-3-yl)cyclopentanecarboxamide], for which the inhibition at 10 µM was 47% and the pEC50 was less than 5.00.

On to `CN(C)CCNc1cc(F)cc(-c2ccnc3[nH]c(-c4n[nH]c5ccc(-c6ccccn6)nc45)nc23)c1` [Compound 476, N^1-(3-Fluoro-5-(2-(5-(pyridin-2-yl)-1H-pyrazolo[4,3-b]pyridin-3-yl)-3H-imidazo[4,5-b]pyridin-7-yl)phenyl)-N^2,N^2-dimethylethane-1,2-diamine], for which the inhibition at 10 µM is 15.5% and the pEC50 was less than 5.00.

Regarding `CS(=O)(=O)NCc1cc(F)cc(-c2ccnc3[nH]c(-c4n[nH]c5ccc(-c6cncc(NC(=O)c7ccccc7)c6)nc45)nc23)c1` [Compound 487, N-(5-(3-(7-(3-Fluoro-5-(methylsulfonamidomethyl)phenyl)-3H-imidazo[4,5-b]pyridin-2-yl)-1H-pyrazolo[4,3-b]pyridin-5-yl)pyridin-3-yl)benzamide], the inhibition at 10 µM was 7.1% and the pEC50 is less than 5.00.

With `CS(=O)(=O)NCc1cc(F)cc(-c2ccnc3[nH]c(-c4n[nH]c5ccc(-c6cncnc6)nc45)nc23)c1` [Compound 503, N-(3-Fluoro-5-(2-(5-(pyrimidin-5-yl)-1H-pyrazolo[4,3-b]pyridin-3-yl)-3H-imidazo[4,5-b]pyridin-7-yl)benzyl)methanesulfonamide], the inhibition at 10 µM worked out at 14.1% and the pEC50 was less than 5.00.

Turning to `c1cncc(-c2ccnc3[nH]c(-c4n[nH]c5ccc(-c6cncc(OC7CCCCC7)c6)nc45)nc23)c1` [Compound 559, 5-(5-(Cyclohexyloxy)pyridin-3-yl)-3-(7-(pyridin-3-yl)-3H-imidazo[4,5-b]pyridin-2-yl)-1H-pyrazolo[4,3-b]pyridine], the inhibition at 10 µM worked out at 12.4% and the negative logarithm of the EC50 (pEC50) is less than 5.00.

On to `Oc1cncc(-c2ccc3[nH]nc(-c4nc5c(-c6cccnc6)ccnc5[nH]4)c3n2)c1` [Compound 565, 5-(3-(7-(Pyridin-3-yl)-3H-imidazo[4,5-b]pyridin-2-yl)-1H-pyrazolo[4,3-b]pyridin-5-yl)pyridin-3-ol], for which the inhibition at 10 µM was 14.1% and the pEC50 is less than 5.00.

As for `c1cc(-c2ccnc3[nH]c(-c4n[nH]c5ccc(-c6cncc(OC7CCNCC7)c6)nc45)nc23)ccn1` [Compound 576, 5-(5-(Piperidin-4-yloxy)pyridin-3-yl)-3-(7-(pyridin-4-yl)-3H-imidazo[4,5-b]pyridin-2-yl)-1H-pyrazolo[4,3-b]pyridine], the inhibition at 10 µM is 8.9% and the pEC50 was less than 5.00.

Take `c1ccc(COc2cncc(-c3ccc4[nH]nc(-c5nc6c(-c7ccncc7)ccnc6[nH]5)c4n3)c2)cc1` [Compound 582, 5-(5-(Benzyloxy)pyridin-3-yl)-3-(7-(pyridin-4-yl)-3H-imidazo[4,5-b]pyridin-2-yl)-1H-pyrazolo[4,3-b]pyridine]: the inhibition at 10 µM was 5.8% and the pEC50 was less than 5.00.

Consider `c1cc(-c2ccnc3[nH]c(-c4n[nH]c5ccc(-c6cnccn6)nc45)nc23)ccn1` [Compound 584, 5-(Pyrazin-2-yl)-3-(7-(pyridin-4-yl)-3H-imidazo[4,5-b]pyridin-2-yl)-1H-pyrazolo[4,3-b]pyridine], for which the inhibition at 10 µM came to 8.5% and the pEC50 is less than 5.00.

In the case of `O=C(CC1CCNCC1)Nc1cncc(-c2ccc3[nH]nc(-c4nc5c(-c6ccccn6)ccnc5[nH]4)c3n2)c1` [Compound 593, 2-(Piperidin-4-yl)-N-(5-(3-(7-(pyridin-2-yl)-3H-imidazo[4,5-b]pyridin-2-yl)-1H-pyrazolo[4,3-b]pyridin-5-yl)pyridin-3-yl)acetamide], the inhibition at 10 µM was 29.3% and the pEC50 was less than 5.00.

For the compound `c1cc(N2CCCCC2)c2nc(-c3n[nH]c4ccc(-c5cncc(OCCN6CCCC6)c5)nc34)[nH]c2n1` [Compound 610, 3-(7-(Piperidin-1-yl)-3H-imidazo[4,5-b]pyridin-2-yl)-5-(5-(2-(pyrrolidin-1-yl)ethoxy)pyridin-3-yl)-1H-pyrazolo[4,3-b]pyridine], the inhibition at 10 µM was determined as 4.8% and the pEC50 was less than 5.00.

Consider `COc1cncc(-c2ccc3[nH]nc(-c4nc5c(N6CCCCC6)ccnc5[nH]4)c3n2)c1` [Compound 612, 5-(5-Methoxypyridin-3-yl)-3-(7-(piperidin-1-yl)-3H-imidazo[4,5-b]pyridin-2-yl)-1H-pyrazolo[4,3-b]pyridine], for which the inhibition at 10 µM is 5.8% and the pEC50 is less than 5.00.

Take `Cc1cn(-c2ccnc3[nH]c(-c4n[nH]c5ccc(C6=CCNCC6)nc45)nc23)cn1` [Compound 618, 3-(7-(4-Methyl-1H-imidazol-1-yl)-3H-imidazo[4,5-b]pyridin-2-yl)-5-(1,2,3,6-tetrahydropyridin-4-yl)-1H-pyrazolo[4,3-b]pyridine]: the inhibition at 10 µM was 8.7% and the pEC50 is less than 5.00.

Regarding `Cc1cn(-c2ccnc3[nH]c(-c4n[nH]c5ccc(-c6cncc(N7CC(N)C7)n6)nc45)nc23)cn1` [Compound 622, 1-(6-(3-(7-(4-Methyl-1H-imidazol-1-yl)-3H-imidazo[4,5-b]pyridin-2-yl)-1H-pyrazolo[4,3-b]pyridin-5-yl)pyrazin-2-yl)azetidin-3-amine], the inhibition at 10 µM worked out at 9.8% and the pEC50 is less than 5.00.
